Values quoted from earlier work, collected in patent US20230131804A1, “FARNESOID X RECEPTOR AGONISTS FOR THE TREATMENT OF DISEASE” (Metacrine, Inc., priority 2020, published 2023).
Entries after “also recorded” stand apart in the source; their conditions may differ.

Conditions: published clinical studies, higher administered doses; cited from earlier work

CC[C@H]1[C@@H](O)[C@@H]2[C@H](CC[C@]3(C)[C@@H]([C@H](C)CCC(=O)O)CC[C@@H]23)[C@@]2(C)CC[C@@H](O)C[C@@H]12 [OCA, Obeticholic acid]
adverse side effects: pruritis, increased LDL cholesterol and liver toxicity; also recorded: adverse effects of increased LDL cholesterol and liver toxicity
